Like-named read-outs stand apart in the source and are kept apart here.
Tests used:
Acute Toxicity = settings: rat, in vivo, po, male Wistar rats
Procedure: The test compounds were orally administered to male Wistar rats, and the half lethal dose (LD50) was measured.

gastric juice secretion = assay: Shay rat pylorus ligation method (gastric juice secretion-inhibiting activity); assay type: in vivo, male Wistar rats; settings: sc, 4 h, 100 mg/kg s.c., 30 min before pylorus ligation, measured 4 hours after ligation
Procedure: The pharmacological activities of the compouns (I) were tested by a Shay rat pylorus ligation method (cf. H. Shay et al: Gastroenterol., Vol. 5, page 43, 1945) which is the most popular method for testing of gastric juice secretion-inhibiting activity. The test was carried out by using male Wistar rats, weighing about 170 g and fasting for 24 hours.
Test compounds were administered 30 minutes before the pylorus ligation in a dose of 100 mg/kg in subcutaneous route, and the volume, total acidity and/or pepsin activity of the gastric juice were measured 4 hours after the ligation. As a control, a saline solution was administered instead of the test compound. The inhibitory ratio (%) of the test compounds were calculated when the inhibitory activities of the control were counted as zero (0).
(§1) In the table, the inhibitory ratio (%) was evaluated as follows: […]

Stress Ulcer = assay: Stress Ulcer; assay type: in vivo, male Wistar rats; settings: oral, 1×10^-3 mole in 0.5% CMC, before restraint and water dipping at 23° C. for 7 hours
Procedure: After male Wistar rats weighing about 170 g was fasted for 24 hours, the rats were restrained in a stress cage and dipped in water bath at 23° C. till chest of the animals. After 7 hours, the rats were killed and the stomach was isolated. Into the isolated stomach 10% formalin (8 ml) was poured and settled. The stomach was cut open at the greater curvature, and the length of each ulcer on the membrane was measured. Sum of the length of all ulcers was shown as ulcer index (UI). The test compound was orally administered to the rats before restraint in a stress cage in the form of 0.5% CMC suspension in a concentration of 1×10^-3 mole. As a control, only the solvent (CMC solution) was administered likewise.
The inhibitory ratio (%) of stress ulcer of the test compounds was calculated by the following equation: [formula]
as §1

[1] = saline control = 0, read-out: Inhibitory ratio, Pepsin activity
[2] = saline control = 0, read-out: Inhibitory ratio, Total acidity
[3] = saline control = 0, read-out: Inhibitory ratio, Volume of gastric juice

CCN(C(=O)CCCCSc1nnnn1C)C1CCCCC1 [Compound 3, N-Ethyl-N-cyclohexyl-5-(1-methyl-1,2,3,4-tetrazol-5-yl)thio-valeramide]
LD50 (Acute Toxicity): > 500 mg/kg
inhibition in vivo at 100 mg/kg (gastric juice secretion; [1]): 10 to 50%
inhibition in vivo at 100 mg/kg (gastric juice secretion; [2]): 10 to 50%
inhibition in vivo at 100 mg/kg (gastric juice secretion; [3]): > 50%

CCN(CC)C(=O)CCCCc1nnnn1C1CCCCC1 [Compound 5, N,N-Diethyl-5-(1-cyclohexyl-1,2,3,4-tetrazol-5-yl)valeramide]
LD50 (Acute Toxicity): > 500 mg/kg
inhibition in vivo at 100 mg/kg (gastric juice secretion; [1]): 10 to 50%
inhibition in vivo at 100 mg/kg (gastric juice secretion; [2]): 10 to 50%
inhibition in vivo at 100 mg/kg (gastric juice secretion; [3]): 10 to 50%

Cn1nnnc1SCCCC(=O)NC1CCCCC1 [Compound 6, N-Cyclohexyl-4-(1-methyl-1,2,3,4-tetrazol-5-yl)thio-butyramide]
LD50 (Acute Toxicity): > 500 mg/kg
inhibition in vivo at 100 mg/kg (gastric juice secretion; [1]): 10 to 50%
inhibition in vivo at 100 mg/kg (gastric juice secretion; [2]): 10 to 50%
inhibition in vivo at 100 mg/kg (gastric juice secretion; [3]): 10 to 50%

CCN(C(=O)CCCSc1nnnn1C)C1CCCCC1O (stereo not shown) [Compound 8, N-Ethyl-N-(2-hydroxycyclohexyl)-4-(1-methyl-1,2,3,4-tetrazol-5-yl)thio-butyramide]
LD50 (Acute Toxicity): > 500 mg/kg
inhibition in vivo at 100 mg/kg (gastric juice secretion; [1]): 10 to 50%
inhibition in vivo at 100 mg/kg (gastric juice secretion; [2]): 10 to 50%
inhibition in vivo at 100 mg/kg (gastric juice secretion; [3]): 10 to 50%

CCN(CC)C(=O)CCSCc1nnnn1CC [Compound 14, N,N-Diethyl-3-(1-ethyl-1,2,3,4-tetrazol-5-yl)methylthio-propionamide]
Inhibitory ratio of stress ulcer (Stress Ulcer): ++ (more than 60%)
inhibition in vivo at 100 mg/kg (gastric juice secretion; [3]): 10 to 50%

CCCCn1nnnc1CSCCC(=O)NCC [Compound 15, N-Ethyl-3-(1-butyl-1,2,3,4-tetrazol-5-yl)-methylthio-propionamide]
Inhibitory ratio of stress ulcer (Stress Ulcer): ++ (more than 60%)

CCN(CC)C(=O)CCCSCc1nnnn1CC [Compound 18, N,N-Diethyl-4-(1-ethyl-1,2,3,4-tetrazol-5-yl)methylthio-butyramide]
Inhibitory ratio of stress ulcer (Stress Ulcer): + (30 to less than 60%)

CCN(C(=O)CCCSc1nnnn1C)C1CCCCCC1 [Compound 20, N-Ethyl-N-cycloheptyl-4-(1-methyl-1,2,3,4-tetrazol-5-yl)thio-butyramide]
inhibition in vivo at 100 mg/kg (gastric juice secretion; [1]): < 10%
inhibition in vivo at 100 mg/kg (gastric juice secretion; [2]): 10 to 50%
inhibition in vivo at 100 mg/kg (gastric juice secretion; [3]): > 50%

CC(C)N(C(=O)CCCSc1nnnn1C)C(C)C [Compound 21, N,N-Diisopropyl-4-(1-methyl-1,2,3,4-tetrazol-5-yl)thio-butyramide]
inhibition in vivo at 100 mg/kg (gastric juice secretion; [1]): < 10%
inhibition in vivo at 100 mg/kg (gastric juice secretion; [2]): 10 to 50%
inhibition in vivo at 100 mg/kg (gastric juice secretion; [3]): > 50%

Cn1nnnc1SCCCC(=O)N(Cc1ccccc1)Cc1ccccc1 [Compound 22, N,N-Dibenzyl-4-(1-methyl-1,2,3,4-tetrazol-5-yl)thio-butyramide]
inhibition in vivo at 100 mg/kg (gastric juice secretion; [1]): < 10%
inhibition in vivo at 100 mg/kg (gastric juice secretion; [2]): 10 to 50%
inhibition in vivo at 100 mg/kg (gastric juice secretion; [3]): 10 to 50%

CCN(C(=O)CCCCc1nnnn1C1CCCCC1)C1CCCCC1 [Compound 23, N-Ethyl-N-cyclohexyl-5-(1-cyclohexyl-1,2,3,4-tetrazol-5-yl)valeramide]
Inhibitory ratio of stress ulcer (Stress Ulcer): + (30 to less than 60%)
inhibition in vivo at 100 mg/kg (gastric juice secretion; [1]): < 10%
inhibition in vivo at 100 mg/kg (gastric juice secretion; [2]): 10 to 50%
inhibition in vivo at 100 mg/kg (gastric juice secretion; [3]): 10 to 50%

CC(C)N(C(=O)CCCSc1nnnn1C)C1CCCCC1 [Compound 24, N-Isopropyl-N-cyclohexyl-4-(1-methyl-1,2,3,4-tetrazol-5-yl)thio-butyramide]
inhibition in vivo at 100 mg/kg (gastric juice secretion; [1]): < 10%
inhibition in vivo at 100 mg/kg (gastric juice secretion; [2]): 10 to 50%
inhibition in vivo at 100 mg/kg (gastric juice secretion; [3]): > 50%

Cn1nnnc1SCCCC(=O)N1CCCCC1 [Compound 25, 1-Methyl-5-(3-piperidylcarbonylpropyl)thio-1,2,3,4-tetrazole]
inhibition in vivo at 100 mg/kg (gastric juice secretion; [1]): 10 to 50%
inhibition in vivo at 100 mg/kg (gastric juice secretion; [2]): 10 to 50%
inhibition in vivo at 100 mg/kg (gastric juice secretion; [3]): 10 to 50%

Cn1nnnc1SCCCC(=O)Nc1ccccn1 [Compound 27, N-(2-Pyridyl)-4-(1-methyl-1,2,3,4-tetrazol-5-yl)thio-butyramide]
inhibition in vivo at 100 mg/kg (gastric juice secretion; [1]): 10 to 50%
inhibition in vivo at 100 mg/kg (gastric juice secretion; [2]): 10 to 50%
inhibition in vivo at 100 mg/kg (gastric juice secretion; [3]): 10 to 50%

CCN(C(=O)CCCSc1nnnn1C)C1CCCC1 [Compound 29, N-Ethyl-N-cyclopentyl-4-(1-methyl-1,2,3,4-tetrazol-5-yl)thio-butyramide]
inhibition in vivo at 100 mg/kg (gastric juice secretion; [1]): 10 to 50%
inhibition in vivo at 100 mg/kg (gastric juice secretion; [2]): > 50%
inhibition in vivo at 100 mg/kg (gastric juice secretion; [3]): > 50%

CCN(CC1CCCCC1)C(=O)CCCSc1nnnn1C [Compound 30, N-Ethyl-N-cyclohexylmethyl-4-(1-methyl-1,2,3,4-tetrazol-5-yl)thio-butyramide]
inhibition in vivo at 100 mg/kg (gastric juice secretion; [1]): 10 to 50%
inhibition in vivo at 100 mg/kg (gastric juice secretion; [2]): 10 to 50%
inhibition in vivo at 100 mg/kg (gastric juice secretion; [3]): > 50%

CCN(C(=O)CCCSc1nnnn1-c1ccccc1)C1CCCCC1 [Compound 31, N-Ethyl-N-cyclohexyl-4-(1-phenyl-1,2,3,4-tetrazol-5-yl)thio-butyramide]
inhibition in vivo at 100 mg/kg (gastric juice secretion; [1]): 10 to 50%
inhibition in vivo at 100 mg/kg (gastric juice secretion; [2]): 10 to 50%
inhibition in vivo at 100 mg/kg (gastric juice secretion; [3]): > 50%

CC(=O)N1CCN(C(=O)CCCSc2nnnn2C)CC1 [Compound 32, 1-Methyl-5-[3-(4-acetyl-1-piperazinylcarbonyl)propyl]thio-1,2,3,4-tetrazol]
inhibition in vivo at 100 mg/kg (gastric juice secretion; [1]): 10 to 50%
inhibition in vivo at 100 mg/kg (gastric juice secretion; [2]): 10 to 50%
inhibition in vivo at 100 mg/kg (gastric juice secretion; [3]): 10 to 50%

Cn1nnnc1SCCCC(=O)N1CCOCC1 [Compound 33, 1-Methyl-5-(3-morpholinocarbonylpropyl)thio-1,2,3,4-tetrazole]
inhibition in vivo at 100 mg/kg (gastric juice secretion; [1]): 10 to 50%
inhibition in vivo at 100 mg/kg (gastric juice secretion; [2]): 10 to 50%
inhibition in vivo at 100 mg/kg (gastric juice secretion; [3]): 10 to 50%

CCN(CC)C(=O)CCCCc1nnnn1C [Compound 34, N,N-Diethyl-5-(1-methyl-1,2,3,4-tetrazol-5-yl)valeramide]
Inhibitory ratio of stress ulcer (Stress Ulcer): + (30 to less than 60%)
inhibition in vivo at 100 mg/kg (gastric juice secretion; [1]): 10 to 50%
inhibition in vivo at 100 mg/kg (gastric juice secretion; [2]): 10 to 50%
inhibition in vivo at 100 mg/kg (gastric juice secretion; [3]): 10 to 50%

CCN(CC)C(=O)CCCCc1nnnn1-c1ccccc1 [Compound 35, N,N-Diethyl-5-(1-phenyl-1,2,3,4-tetrazol-5-yl)valeramide]
Inhibitory ratio of stress ulcer (Stress Ulcer): + (30 to less than 60%)
inhibition in vivo at 100 mg/kg (gastric juice secretion; [1]): 10 to 50%
inhibition in vivo at 100 mg/kg (gastric juice secretion; [2]): 10 to 50%
inhibition in vivo at 100 mg/kg (gastric juice secretion; [3]): 10 to 50%

CCN(C(=O)CCSCc1nnnn1CC)C1CCCCC1 [Compound 36, N-Ethyl-N-cyclohexyl-3-(1-ethyl-1,2,3,4-tetrazol-5-yl)methylthio-propionamide]
inhibition in vivo at 100 mg/kg (gastric juice secretion; [3]): > 50%

Cn1nnnc1SCCCC(=O)O [Compound 38, 4-(1-methyl-1,2,3,4-tetrazol-5-yl)thiobutyric acid]
inhibition in vivo at 100 mg/kg (gastric juice secretion; [3]): 10 to 50%

Cn1nnnc1SCCCC(=O)N(CCO)c1ccccc1 [Compound 40, N-(2-Hydroxyethyl)-N-phenyl-4-(1-methyl-1,2,3,4-tetrazol-5-yl)thio-butyramide]
inhibition in vivo at 100 mg/kg (gastric juice secretion; [3]): 10 to 50%

Cn1nnnc1SCCCC(=O)Nc1ccc(S(N)(=O)=O)cc1 [Compound 41, N-(4-Sulfamoylphenyl)-4-(1-methyl-1,2,3,4-tetrazol-5-yl)thio-butyramide]
inhibition in vivo at 100 mg/kg (gastric juice secretion; [3]): 10 to 50%

Cc1c(Cl)cccc1NC(=O)CCCSc1nnnn1C [Compound 42, N-(2-Methyl-3-chlorophenyl)-4-(1-methyl-1,2,3,4-tetrazol-5-yl)thio-butyramide]
inhibition in vivo at 100 mg/kg (gastric juice secretion; [3]): 10 to 50%

Cn1nnnc1SCCCC(=O)Nc1ccc([N+](=O)[O-])cc1 [Compound 43, N-(4-Nitrophenyl)-4-(1-methyl-1,2,3,4-tetrazol-5-yl)thio-butyramide]
inhibition in vivo at 100 mg/kg (gastric juice secretion; [3]): 10 to 50%

CCCCCCNC(=O)CCCCc1nnnn1-c1ccccc1 [Compound 48, N-(n-Hexyl)-5-(1-phenyl-1,2,3,4-tetrazol-5-yl)valeramide]
Inhibitory ratio of stress ulcer (Stress Ulcer): + (30 to less than 60%)

CC(C)N(C(=O)CCCCc1nnnn1-c1ccccc1)C1CCCCC1 [Compound 50, N-Isopropyl-N-cyclohexyl-5-(1-phenyl-1,2,3,4-tetrazol-5-yl)valeramide]
Inhibitory ratio of stress ulcer (Stress Ulcer): ++ (more than 60%)

CCN(C(=O)CCCCc1nnnn1C)C1CCCCC1 [Compound 51, N-Ethyl-N-cyclohexyl-5-(1-methyl-1,2,3,4-tetrazol-5-yl)valeramide]
Inhibitory ratio of stress ulcer (Stress Ulcer): + (30 to less than 60%)
inhibition in vivo at 100 mg/kg (gastric juice secretion; [3]): 10 to 50%

CCN(CC)C(=O)CCCCc1nnn[nH]1 [Compound 52, N,N-Diethyl-5-(1,2,3,4-tetrazol-5-yl)-valeramide]
Inhibitory ratio of stress ulcer (Stress Ulcer): + (30 to less than 60%)
inhibition in vivo at 100 mg/kg (gastric juice secretion; [3]): 10 to 50%

CCc1ccc(-n2nnnc2CSCCC(=O)O)cc1 [Compound 53, 3-[1-(4-Ethylphenyl)-1,2,3,4-tetrazol-5-yl]-methylthio-propionic acid]
inhibition in vivo at 100 mg/kg (gastric juice secretion; [3]): 10 to 50%

COC(=O)CCCCc1nnnn1C1CCCCC1 [Compound 54, Methyl 5-(1-cyclohexyl-1,2,3,4-tetrazol-5-yl)valerate]
inhibition in vivo at 100 mg/kg (gastric juice secretion; [3]): 10 to 50%
